Results reported in article PMC7596181 (Frontiers in Immunology, 2020).

What was measured:
human TLR4 [1] = target: T1, human TLR4 (Homo sapiens, UniProt O00206+Q9Y6Y9); experiment: SEAP assay, agonist dose response in human TLR4 HEK-Blue reporter cells; format: cell-based; design: host or cells: HEK-Blue (HEK293-derived) reporter cells; settings: human TLR4 HEK-Blue reporter cells
Protocol: Human and mouse HEK-Blue reporter cells express human or mouse CD14, MD2, and TLR4 and secreted embryonic alkaline phosphatase (SEAP) under control of a promoter with binding sites for NFκB and AP-1 transcription factors (InvivoGen cat. nos. hkb-htlr4 and hkb-mtlr4). Cells were cultured as directed by the supplier, with the exception that Glutamax (ThermoFisher cat. no. 10569010) was used in place of L-glutamine, and TrypLE Express (ThermoFisher cat. no. 12605010) was used to release adherent cells for each passage. BALB/c mouse RAW264.7 and human THP-1 cells (ATCC® cat. nos. TIB-71 and TIB-202) were cultured in DMEM (4.5 g/L D-Glucose with 2 mM L-glutamine, 1 mM sodium pyruvate, 100 U/ml penicillin and 100 μg/ml streptomycin) supplemented with 10% heat-inactivated FBS. THP-1 cells were exposed to phorbol-12-myristate-13-acetate (PMA, InvivoGen cat no. tlrl-pma), 5 ng/ml, for 48 h prior to treatment with TLR4 agonists. Bone marrow-derived dendritic cells (BMDCs) were generated using C57BL/6 mouse femurs following the exact method published by Lutz et al. ([29]) except that 5 rather than 20 ng/ml recombinant GM-CSF was used to differentiate the DC. Human peripheral blood […] (PBMCs) were prepared from venous blood of healthy volunteers that had been collected using sodium citrate as anti-coagulant, 20 ml of which was mixed with 15 ml calcium- and magnesium-free Hank’s Balanced Saline Solution (HBSS) and then laid over 6 ml Histopaque®-1077 (1.077 g/ml, Sigma-Aldrich cat no. 10771) for density gradient centrifugation. The buffy coat layer was collected by pipette, washed once in HBSS, once in serum-free RPMI-1640, and then the PBMCs were resuspended in RPMI-1640 supplemented with 100 U/ml penicillin, 100 µg/ml streptomycin, 1 mM Na-Pyruvate, 2 mM L-glutamine, 50 μM βME and 10% heat-inactivated, male AB human serum for culture.
(§1) SEAP assays were performed to evaluate the extent to which TLR4 signaling was activated in HEK-Blue reporter cells expressing mouse or human receptors (CD14, MD2 and TLR4). Reporter cells were harvested when 70–80% confluent and plated in 96-well, flat-bottom microtiter plates either 1 h, one day or two days (5 × 10^4, 4 × 10^4 or 2 × 10^4 cells/well, respectively) before addition of TLR4 agonists for 18–24 h. Culture supernatants were transferred to U-bottom microtiter plates, centrifuged and transferred again to microtiter plates to ensure reporter cells were not present. The culture supernatants were added to QUANTI-BLUE substrate following instructions provided by the manufacturer (InvivoGen cat. nos. rep-qbl or rep-qbs) and incubated at 37°C in a tissue culture incubator. At successive intervals beginning 10 min after mixing the supernatants and substrate, the plates were placed in an Emax plate reader (Molecular Devices LLC) and optical density was measured at visible light wavelength […] (OD650). The shortest incubations at which dose response curve fits produced maximal R^2 ‘goodness of fit’ values, as determined by GraphPad Prism software, were used for analysis.
Pharmacological profiles of the TLR4 reagents were generated by performing dose response curves in one of four formats. 1) Agonist potency and efficacy (EC50 and height of dose plateau, respectively) were measured by diluting TLR4 reagents successively in complete culture medium [DMEM or RPMI supplemented with fetal bovine serum (FBS) or RPMI supplemented with human serum, depending on cell-type]. Half-log step dilutions were performed in 96-well, U-bottom microtiter plates using a multichannel pipette to transfer and mix the suspensions, with fresh tips used for each dilution step. One-tenth (20 μl) volumes from wells of the dilution plate were then transferred to wells containing cells that had been plated in nine-tenth volumes (180 μl) of culture medium. […]

human TLR4 [2] = target: T1, human TLR4; experiment: Inhibition curves (IC50 format): antagonist diluted in a fixed concentration of reference agonist, human TLR4 HEK-Blue SEAP; format: cell-based; design: host or cells: HEK-Blue (HEK293-derived) reporter cells; settings: for inhibition of 3D-6A-PHAD stimulation: fixed 3D-6A-PHAD 300 nM; for IC50: 95% CI given; for inhibition of PHAD stimulation: fixed PHAD 1 μM, 22 h
Protocol: as §1
Pharmacological profiles of the TLR4 reagents were generated by performing dose response curves in one of four formats. 1) Agonist potency and efficacy (EC50 and height of dose plateau, respectively) were measured by diluting TLR4 reagents successively in complete culture medium [DMEM or RPMI supplemented with fetal bovine serum (FBS) or RPMI supplemented with human serum, depending on cell-type]. Half-log step dilutions were performed in 96-well, U-bottom microtiter plates using a multichannel pipette to transfer and mix the suspensions, with fresh tips used for each dilution step. One-tenth (20 μl) volumes from wells of the dilution plate were then transferred to wells containing cells that had been plated in nine-tenth volumes (180 μl) of culture medium. 2) Mixed agonist–antagonist potency and efficacy were measured by mixing a TLR4 agonist with a candidate antagonist at a fixed ratio and then performing half-log step dilutions before treating HEK reporter cells. Analysis of values obtained from SEAP assays of culture supernatants was then performed as described for preparations containing agonist alone, above. 3) Competitive vs allosteric or non-competitive antagonist type was evaluated by diluting a reference agonist within a fixed concentration of a candidate inhibitor in half-log steps, treating HEK reporter cells, performing SEAP assays and then analyzing the data as described for agonist assays, above. Competitive antagonists are characterized by values that reach the same dose plateau as for a reference, full agonist, while shifting potency to higher EC50 values. […] 4) Inhibitory potency (IC50) was measured by diluting antagonists within a fixed concentration of a reference agonist, treating HEK reporter cells and performing SEAP assays as described.

T1 sequence (O00206 24-839): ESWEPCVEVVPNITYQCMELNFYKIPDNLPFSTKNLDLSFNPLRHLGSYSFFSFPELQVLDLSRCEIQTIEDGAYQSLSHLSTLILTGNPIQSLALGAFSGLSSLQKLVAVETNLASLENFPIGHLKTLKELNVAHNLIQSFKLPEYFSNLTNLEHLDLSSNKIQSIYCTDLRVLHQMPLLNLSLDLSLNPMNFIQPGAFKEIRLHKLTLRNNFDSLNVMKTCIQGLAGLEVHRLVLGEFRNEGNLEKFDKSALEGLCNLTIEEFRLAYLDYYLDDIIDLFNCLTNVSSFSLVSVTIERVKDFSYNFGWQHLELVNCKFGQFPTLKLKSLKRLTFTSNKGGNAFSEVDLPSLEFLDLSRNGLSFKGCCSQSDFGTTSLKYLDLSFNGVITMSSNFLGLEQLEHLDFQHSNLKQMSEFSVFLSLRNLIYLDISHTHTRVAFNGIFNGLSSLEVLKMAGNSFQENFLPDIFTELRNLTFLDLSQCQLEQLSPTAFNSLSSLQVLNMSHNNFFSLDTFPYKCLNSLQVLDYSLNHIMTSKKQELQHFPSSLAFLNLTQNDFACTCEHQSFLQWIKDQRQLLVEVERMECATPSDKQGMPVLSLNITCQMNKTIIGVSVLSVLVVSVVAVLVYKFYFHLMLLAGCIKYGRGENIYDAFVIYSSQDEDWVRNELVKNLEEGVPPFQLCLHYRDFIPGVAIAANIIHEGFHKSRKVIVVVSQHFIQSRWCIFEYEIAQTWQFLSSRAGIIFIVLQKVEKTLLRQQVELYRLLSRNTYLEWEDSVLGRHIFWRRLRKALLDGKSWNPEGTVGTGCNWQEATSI
T1 sequence (Q9Y6Y9 17-160 limits assumed): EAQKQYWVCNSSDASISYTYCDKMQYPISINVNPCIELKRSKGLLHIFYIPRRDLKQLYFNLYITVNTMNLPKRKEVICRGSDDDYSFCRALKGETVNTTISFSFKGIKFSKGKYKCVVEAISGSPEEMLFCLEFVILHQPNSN

agonist profile (human TLR4 [1]) | inhibition of 3D-6A-PHAD stimulation (human TLR4 [2]) | IC50 (human TLR4 [2]; fixed PHAD 30 nM) | inhibition of PHAD stimulation (human TLR4 [2]) | SMILES | extent of inhibition at high dose (human TLR4 [2]; fixed PHAD 30 nM, peak dose 31.6 μM)
largely inactive | functioned as inhibitors | 1320 nM | showed inhibitory potential | CCCCCCCCCCCC(=O)OC(CCCCCCCCCCC)CC(=O)NC1C(OCC2OC(O)C(NC(=O)CC(O)CCCCCCCCCCC)C(O)C2O)OC(CO)C(OP(=O)(O)O)C1O (centres unmarked) [ML3] | –
all but inactive | functioned as inhibitors | 400 nM | showed inhibitory potential | CCCCCCCCCCCC(=O)OC(CCCCCCCCCCC)CC(=O)NC1C(OCC2OC(O)C(NC(=O)CC(O)CCCCCCCCCCC)C(O)C2O)OC(CO)C(OP(=O)(O)O)C1OC(=O)CC(O)CCCCCCCCCCC (centres unmarked) [ML4A] | approach a bottom plateau rather than achieving full inhibition

SMILES | agonist profile (human TLR4 [1]) | inhibition of 3D-6A-PHAD stimulation (human TLR4 [2]) | IC50 (human TLR4 [2]; fixed PHAD 30 nM) | inhibition of PHAD stimulation (human TLR4 [2]) | extent of inhibition at high dose (human TLR4 [2]; fixed PHAD 30 nM, peak dose 31.6 μM)
CCCCCCCCCCCCCCCC(=O)OC(CCCCCCCCCCC)CC(=O)NC1C(O)OC(COC2OC(CO)C(OP(=O)(O)O)C(O)C2NC(=O)CC(CCCCCCCCCCC)OC(=O)CCCCCCCCCCC)C(O)C1O (centres unmarked) [ML4B] | largely inactive | – | – | only ML3 and ML4A showed inhibitory potential | –
